For this test, the system named is orthotopic xenografts of mouse KPC cells (UN-KPC-960). Nature of the test: Orthotopic pancreatic xenografts of mouse KPC cells in B6.129 mice. Type of test: in vivo. Here is the method:
To generate the solid tumor, 10^7 of mouse pancreatic ductal adenocarcinoma UN-KPC-960-luc2 cells suspended in 100 μl PBS were inoculated into flank of syngeneic B6.129 mice. The KPC tumors from the donor mice were excised under sterile conditions once the tumor was grown up to […] in diameter. The donor tumors were cut into 1-1.5 mm^3 pieces using surgical blade.
For the orthotopic xenograted tumors in pancreas, a laparotomy via left flank incision was performed to expose the pancreatic head and donor tumor pieces were inserted into the pancreas of recipient B6.129 mice (n=7/group) followed by closing in two layers with 5-0 absorbable sutures. Two weeks after the tumor transplantation, mice were injected with TLY012 via intraperitoneal route (10 mg/kg, every other day) and/or anti-PD-L1 (B7-H1, anti-mouse PD-L1, 2.5 mg/kg, twice of a week) for 2 weeks. Transplanted animals were imaged once a week for 5 weeks. Bioluminescent images using IVIS were acquired 10-15 minutes after intraperitoneal administration of D-Luciferin (150 mg/kg) (GOLDBIO, St. Louis, Mo., USA).
For tumor volume studies, orthotopic xenograted tumors were generated in pancreas. A laparotomy via left flank incision was performed to expose the pancreatic head and 5×10^6 of UN-KPC-960 cells were transplanted into the pancreas of recipient B6.129 mice (n=5/group) followed by closing in two layers with 5-0 absorbable sutures. four weeks after the transplantation, mice were injected with TLY012 via intraperitoneal route (10 mg/kg, every other day) or saline for 2 weeks. Then excised tumors were studied by: a) captured image and tumor volume of ½ab^2, and b) measured collagen and α-SMA positive area after TLY012 treatment using Sirius red and anti-α-SMA staining
Paraffin sectioned KPC tumor samples were used for immunofluorescence staining (IF) stain with α-SMA and either CD4 or CD8. Tissues were deparaffinized, hydrated, and heated in citrate buffer (Thermo Fisher Scientific) by microwave for antigen retrieval. Slides were washed, treated with blocking solution (3% of normal horse serum, Vectastain ABC System, Vector Labs, Burlingame, Calif.), and primary antibodies, rabbit anti-CD4 antibody (Abcam, ab183685) or rabbit anti-CD8 antibody (Abcam, ab217344) were applied with mouse anti-α-SMA antibody. Tissues were incubated overnight at 4° C., washed and anti-rabbit IgG conjugated with Alexa fluor 488 and anti-mouse IgG conjugated with Alexa fluor 633 (Thermo Fisher Scientific) were applied and incubated at room temperature. After washing the slides, samples were mounted with Fluorescence Mounting Medium with DAPI and captured under Axiovert microscope (Carl Zeiss Microscopy, LLC. Thornwood, N.Y.).
The excised tumors were immediately fixed in 10% buffered formalin, embedded in paraffin, and cut at 4 μm thickness. The sections were then stained for Masson's Trichrome or Sirius-Red staining for determining the collagen deposition. Stained tissues were imaged under a light microscope (Nikon Eclipse E600 connected with Nikon DS-Fi2 camera, Nikon USA). Stained pancreatic tissues were randomly selected 10 photos from individual mice, and the positively stained area was quantified using Image J software (NIH, Bethesda, Md.).

As for “TLY012: PEGylated (5 kDa PEG-aldehyde) recombinant human TRAIL (114-281) fused to modified isoleucine zipper (miLZ) at N-terminus; SEQ ID NO:30 trimer”, the Percent survival is, setting by setting: (Day 0) 100%; (Day 35) 100%. Further, the “Bioluminescence activity (Total Counts), Mean” value runs as follows: (Day 14) 72300 Total Counts; (Day 21) 233157.143 Total Counts; (Day 28) 185128.571 Total Counts; (Day 35) 390357.143 Total Counts. For the same substance, the “tumor volume, Average” value (TLY012 i.p. 10 mg/kg every other day and/or anti-PD-L1 2.5 mg/kg twice a week, 2 weeks) came out at 135.0695 mm3. In addition, under “TLY012 i.p. 10 mg/kg every other day for 2 weeks”, the “levels of collagen (fibrosis), immunohistochemistry” value is “decreased the levels of collagen”. Under “TLY012 i.p. 10 mg/kg every other day for 2 weeks, FIG. 14”, the “tumor volume compared to the saline-treated group” value is given as “reduced the tumor volume”. Besides, the “cytotoxic T cell (CD4, CD8) infiltration to the tumor site” value (double immunofluorescence staining, vs saline) is reported as “enhanced cytotoxic T cell infiltration to the tumor site”.

The values are drawn from patent US11767353B2, “Trail compositions with reduced immunogenicity” (Theraly Fibrosis, Inc., priority 2020, dated 2023).
